According to US20080069809A1, “Compositions and methods for the diagnosis and treatment of cancer” (priority 2006, published 2008):

Experiments:
caspase-3 = test: Caspase-3 phosphorylation in 32PO4-labeled HL60 cells; assay type: cell-based; conditions: 20 nM PEP005
Protocol: To determine if PEP005 induced caspase-3 phosphorylation, HL60 cells were incubated with 1.5×10^7 Bq/mL ^32PO4 (Amersham Pharmacia) in phosphate-free medium for 3 hours prior to addition of 20 nM PEP005 or PEP005 and 5 μM rottlerin (Calbiochem, Nottingham, United Kingdom). Cells were then lysed and caspase-3 was immunoprecipitated with an anti-caspase-3 antibody (BD Pharmingen, Oxford, United Kingdom) or an irrelevant isotype-matched control antibody (DAKO) and the immunoprecipitate was isolated using an anti-mouse immunoglobulin G (IgG) antibody (DAKO) and protein G-coated magnetic beads (microbeads; Miltenyi Biotech). The isolate was taken up in SDS sample buffer and run on a 10% w/v SDS-polyacrylamide gel electrophoresis (PAGE) gel and the labeled proteins were visualized using a phosphorimager.

NB4 [1] = test: Apoptosis (sub-G1 DNA by FACS) in NB4 leukemic cells; assay type: cell-based
Protocol: The myeloid leukemic cell lines HL60, NB60, NB4, U937, K562 and KG1a were all grown in RPMI 1640 medium (Life Technologies, Paisley, United Kingdom) supplemented with 10% v/v fetal calf serum (Sear Laboratories International Crawley, United Kingdom), 100 U/mL penicillin, and 100 μg/mL streptomycin (Sigma Aldrich, Poole, United Kingdom) at 37° C. and 5% v/v CO2. AML blasts were isolated from patient bone marrow aspirates and peripheral blood of eight patients at diagnosis or relapse. Patients were not receiving AML therapy at time of sampling. Blasts were isolated by Ficoll density centrifugation and were cultured in serum-free insulin transferrin selenium-positive (ITS+) medium (Life Technologies) containing 300 ng/mL stem cell factor (SCF) and 10 ng/mL interleukin 3 (IL3; R and D Systems, Abingdon, United Kingdom) and antibiotics. […] Normal myeloblasts were isolated from cord blood or adult mobilized peripheral blood. Briefly, CD34^+ cells were indirectly selected from the mononuclear cell preparations using antibody-coated magnetic beads (Miltenyi Biotec, United Kingdom).
(§1) To determine the effects of ingenol-3-angelate (PEP005), cells were incubated for up to 5 days with medium alone or PEP005 at a range of concentrations from 0.2 nM to 20 μM. […] Apoptosis and differentiation were assessed after 1 to 5 days.

primary AML blasts = test: Apoptosis in primary AML blasts from patient bone marrow; assay type: cell-based, human
Protocol: The myeloid leukemic cell lines HL60, NB60, NB4, U937, K562 and KG1a were all grown in RPMI 1640 medium (Life Technologies, Paisley, United Kingdom) supplemented with 10% v/v fetal calf serum (Sear Laboratories International Crawley, United Kingdom), 100 U/mL penicillin, and 100 μg/mL streptomycin (Sigma Aldrich, Poole, United Kingdom) at 37° C. and 5% v/v CO2. AML blasts were isolated from patient bone marrow aspirates and peripheral blood of eight patients at diagnosis or relapse. Patients were not receiving AML therapy at time of sampling. Blasts were isolated by Ficoll density centrifugation and were cultured in serum-free insulin transferrin selenium-positive (ITS+) medium (Life Technologies) containing 300 ng/mL stem cell factor (SCF) and 10 ng/mL interleukin 3 (IL3; R and D Systems, Abingdon, United Kingdom) and antibiotics. Blast purity ranged from 80% to 95%, as assessed by expression of CD34. Normal myeloblasts were isolated from cord blood or adult mobilized peripheral blood. Briefly, CD34^+ cells were indirectly selected from the mononuclear cell preparations using antibody-coated magnetic beads (Miltenyi Biotec, United Kingdom).
as §1
(§2) Cell differentiation was determined by staining of cells with anti-CD11b antibody as a general early marker of myeloid differentiation. In studies with HL60 cells, PEP005-treated and 20 nM phorbol myristate (PMA)-treated (Sigma Aldrich) cells were also assessed for their ability to phagocytose complement-coated yeast, a marker of a fully differentiated myeloid cell, as previously described (Toksoz et al, Leukemia Res 6:491-498, 1982). […] Images were captured with a SPOT2 cameria (Diagnostic Instructions, Sterling Heights, Mich.) and analyzed using Image-Pro 4.0 software (Media Cybernetics, Silver Spring, Md.).

NB4 [2] = test: Differentiation (CD11b expression) in NB4 cells; assay type: cell-based; conditions: treated 5 days
Protocol: (§3) The myeloid leukemic cell lines HL60, NB60, NB4, U937, K562 and KG1a were all grown in RPMI 1640 medium (Life Technologies, Paisley, United Kingdom) supplemented with 10% v/v fetal calf serum (Sear Laboratories International Crawley, United Kingdom), 100 U/mL penicillin, and 100 μg/mL streptomycin (Sigma Aldrich, Poole, United Kingdom) at 37° C. and 5% v/v CO2. AML blasts were isolated from patient bone marrow aspirates and peripheral blood of eight patients at diagnosis or relapse. Patients were not receiving AML therapy at time of sampling. […] Blast purity ranged from 80% to 95%, as assessed by expression of CD34. […]
as §2

Normal CD34+ myeloblasts = test: Apoptosis / cytotoxicity in normal CD34+ myeloblasts; assay type: cell-based, human
Protocol: as §3, §1
Cell differentiation was determined by staining of cells with anti-CD11b antibody as a general early marker of myeloid differentiation. In studies with HL60 cells, PEP005-treated and 20 nM phorbol myristate (PMA)-treated (Sigma Aldrich) cells were also assessed for their ability to phagocytose complement-coated yeast, a marker of a fully differentiated myeloid cell, as previously described (Toksoz et al, Leukemia Res 6:491-498, 1982). […]

PKC-δ = target: T1, PKC-δ (Homo sapiens, UniProt Q05655); test: PKC-δ activation by translocation (cell fractionation, Western blotting) in HL60 cells; assay type: cell-based; conditions: 10 minutes
T1 construct: endogenous in cells; host or cells: HL60
Protocol: PKC translocates from the soluble to the particulate fraction of cells when activated and this method was used to assess activation of PKC-δ by PEP005 and PMA. Briefly, cells were incubated for 10 minutes in medium alone or 20 nM PEP005 or 20 nM PMA, washed twice in phosphate buffered saline (PBS) and then lysed by homogenization in hypotonic lysis buffer in the absence of detergent. Lysis was checked using trypan blue uptake. Nuclei were isolated by centrifugation at 1000 g for 10 minutes. Centrifugation at 100,000 g for 45 minutes at 4° C. was used to isolate the cytosol (supernatant) and cell membrane (pellet) fractions. All were taken up in SDS sample buffer and analyzed for PKC-δ by Western blotting.

T1 sequence (Q05655 whole entry): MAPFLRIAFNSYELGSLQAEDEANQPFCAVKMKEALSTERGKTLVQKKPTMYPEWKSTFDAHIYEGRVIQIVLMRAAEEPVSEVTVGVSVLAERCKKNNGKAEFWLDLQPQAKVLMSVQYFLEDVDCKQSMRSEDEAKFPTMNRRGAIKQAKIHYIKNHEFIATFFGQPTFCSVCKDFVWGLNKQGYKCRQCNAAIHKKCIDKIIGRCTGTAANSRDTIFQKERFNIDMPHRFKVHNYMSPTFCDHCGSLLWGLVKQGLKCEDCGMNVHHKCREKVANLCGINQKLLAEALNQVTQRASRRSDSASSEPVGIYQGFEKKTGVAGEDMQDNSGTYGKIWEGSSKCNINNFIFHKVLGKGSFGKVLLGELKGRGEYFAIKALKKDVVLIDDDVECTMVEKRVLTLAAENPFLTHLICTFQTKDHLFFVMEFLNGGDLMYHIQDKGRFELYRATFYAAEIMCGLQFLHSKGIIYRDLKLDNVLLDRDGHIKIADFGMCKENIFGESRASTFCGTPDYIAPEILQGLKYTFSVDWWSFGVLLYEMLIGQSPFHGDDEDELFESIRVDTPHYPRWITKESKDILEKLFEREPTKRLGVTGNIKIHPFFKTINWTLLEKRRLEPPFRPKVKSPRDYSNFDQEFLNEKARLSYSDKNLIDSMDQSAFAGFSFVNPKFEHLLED

C/C=C(/C)C(=O)O[C@H]1C(C)=C[C@]23C(=O)[C@@H](C=C(CO)[C@@H](O)[C@]12O)[C@H]1[C@@H](C[C@H]3C)C1(C)C [PEP005, ingenol-3-angelate]
induction of caspase-3 phosphorylation (caspase-3): able to induce caspase-3 phosphorylation
PEP005 concentration with optimal effect, apoptosis (NB4 [1]; sub-G1 DNA by FACS, treated 5 days): 20 nM
fraction of cells entering apoptosis (kinetic study) (NB4 [1]; within the first 1 to 2 days of treatment): up to half of the cells entering apoptosis
viable blast cells / morphology (primary AML blasts; after 48 hours of treatment with 20 nM PEP005): few viable AML blast cells remained
patient AML blast samples induced to enter apoptosis (primary AML blasts; blasts of eight AML patients): seven of these were induced to enter apoptosis
lowest PEP005 concentration inducing apoptosis (primary AML blasts; seven responsive AML samples): 2 nM
PEP005 concentration with optimal effect, CD11b expression (NB4 [2]): 20 nM
induction of apoptosis (Normal CD34+ myeloblasts; concentrations of PEP005 effective against cell lines and AML blast cells, cord blood and adult marrow myeloblasts): Induction of apoptosis was not seen
cytotoxicity (Normal CD34+ myeloblasts; even at 200 nM PEP005): cytotoxicity did not occur
site of initial PKC-δ translocation (PKC-δ; 20 nM PEP005 or 20 nM PMA): to the nuclear and cell membranes
activation of PKC-δ (translocation from cytosol to membrane fraction) (PKC-δ; 20 nM): induced activation of PKC-δ
